Values of other authors as cited in patent publication US11819485B2, “Levodopa fractionated dose composition and use” (AVION PHARMACEUTICALS, LLC, priority 2018, dated 2023).
Like-named read-outs stand apart in the source and are kept apart here.

Key:
[1] = steady intravenous dose, plasma LD kept within efficacy-with-no-MRCs range, as long as the infusion lasted
[2] = not given; remark: listed apart in the source

- solubility in water: poorly soluble in water
Compound: N[C@@H](Cc1ccc(O)c(O)c1)C(=O)O [LD, Levodopa]
- antiparkinsonian effect and dyskinesias during infusion [1]: full antiparkinsonian effect (no wearing off) without any dyskinesias
- duration of effect of each LD dose ([2]; beginning of the disease, orally administered LD): 6 h
- duration of effect of each dose ([2]; early stages of the disease): approximately 6 hours
- duration of effect of each dose ([2]; ultimately, as PD progresses): about 1.5 hours
